The structures appear in SMILES notation. pIC50, pKi: −log10 of the molar value.

Experimental findings from PMC6152678, “In Vitro Comparative Study of the Inhibitory Effects of Mangiferin and Its Aglycone Norathyriol towards UDP-Glucuronosyl Transferase (UGT) Isoforms” (Molecules : A Journal of Synthetic Chemistry and Natural …, 2017) are described below.

In one series the target is T1, UGT1A7 (Homo sapiens, UniProt Q9HAW7).
T1 construct: purchased BD Gentest Corp. (Woburn, MA, USA); host or cells: baculovirus-infected insect cells
T1 sequence (Q9HAW7 26-530): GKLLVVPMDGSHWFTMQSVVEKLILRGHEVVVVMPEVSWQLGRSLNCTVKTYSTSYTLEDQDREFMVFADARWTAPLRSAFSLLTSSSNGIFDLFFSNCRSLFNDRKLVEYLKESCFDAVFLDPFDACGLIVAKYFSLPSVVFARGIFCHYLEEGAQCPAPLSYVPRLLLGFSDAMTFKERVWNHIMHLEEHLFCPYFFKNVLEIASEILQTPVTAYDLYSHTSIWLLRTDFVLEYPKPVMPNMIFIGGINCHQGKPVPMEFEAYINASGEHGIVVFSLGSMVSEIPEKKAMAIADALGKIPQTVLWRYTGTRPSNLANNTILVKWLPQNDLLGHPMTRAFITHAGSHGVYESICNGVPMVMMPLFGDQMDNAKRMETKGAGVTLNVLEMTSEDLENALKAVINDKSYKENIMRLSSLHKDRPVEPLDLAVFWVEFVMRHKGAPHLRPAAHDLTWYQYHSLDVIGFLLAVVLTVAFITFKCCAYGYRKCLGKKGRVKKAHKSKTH
Kind of series: Inhibition of recombinant UGT-catalyzed 4-MU glucuronidation. It is filed as biochemical. As to conditions: for inhibition at 30 min, 100 µM: human, pH 7.4, probe 4-methylumbelliferone (4-MU), 30 μM, 100 μM compound, 4-MU probe substrate, negative = activation.

The target of the next series is T2, UGT1A1 (Homo sapiens, UniProt P22309).
T2 construct: purchased BD Gentest Corp. (Woburn, MA, USA); host or cells: baculovirus-infected insect cells
T2 sequence (P22309 26-533): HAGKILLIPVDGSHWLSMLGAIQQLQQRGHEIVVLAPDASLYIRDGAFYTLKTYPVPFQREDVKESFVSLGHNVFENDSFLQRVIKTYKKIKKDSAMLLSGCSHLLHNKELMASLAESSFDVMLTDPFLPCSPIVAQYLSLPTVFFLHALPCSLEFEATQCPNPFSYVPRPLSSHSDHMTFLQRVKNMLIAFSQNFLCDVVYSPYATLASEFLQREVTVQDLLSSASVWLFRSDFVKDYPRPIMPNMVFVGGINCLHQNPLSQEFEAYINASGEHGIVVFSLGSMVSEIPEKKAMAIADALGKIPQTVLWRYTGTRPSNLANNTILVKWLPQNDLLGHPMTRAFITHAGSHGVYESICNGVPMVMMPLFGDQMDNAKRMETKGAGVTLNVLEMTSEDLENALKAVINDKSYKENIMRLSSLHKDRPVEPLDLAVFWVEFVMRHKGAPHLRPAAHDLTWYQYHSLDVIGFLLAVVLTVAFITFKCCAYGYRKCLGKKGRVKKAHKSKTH
The description is as above. Format: biochemical. As to conditions: pH 7.4, probe 4-methylumbelliferone (4-MU), 110 μM, 100 μM compound, 4-MU probe substrate, negative = activation.

Broadly, the inhibition is the percentage by which the read-out fell short of the control. Take `O=c1c2cc(O)c(O)cc2oc2cc(O)c([C@@H]3O[C@H](CO)[C@@H](O)[C@H](O)[C@H]3O)c(O)c12` [MGF, 1,3,6,7-tetrahydroxyxanthone-C-2-β-D-glucoside]: at UGT1A7, the inhibition at 30 min, 100 µM was 26.7%. The inhibition at 120 min, 100 µM at UGT1A1 is 14.5%.
The pIC50 is the negative decadic logarithm of the IC50, by convention in mol/L. What is called pKi is −log10 of the Ki, conventionally taken in molar units. For the molecule `O=c1c2cc(O)c(O)cc2oc2cc(O)cc(O)c12` [NTR, 1,3,6,7-tetrahydroxyxanthone], at UGT1A7 (4-MU glucuronidation, Probit analysis, read-out: IC50 towards UGT1A7), the pIC50 was 5.36. In addition, the “inhibition type towards UGT1A7” value on UGT1A7 (Dixon plot and Lineweaver-Burk plot) is on record as “competitively inhibited”. The inhibition at 30 min, 100 µM at UGT1A7 came out at 94.9%. Further, the pKi on UGT1A7 (second plot of Lineweaver-Burk slopes, read-out: inhibition constant (Ki) towards UGT1A7) is 5.70. Further, the inhibition at 120 min, 100 µM on UGT1A1 was found to be 50.8%.
